The pIC50 is −log10 of the IC50, conventionally taken in molar units.

pIC50: −log10 of the molar value.

T1 sequence (Q9NZ08 37-941): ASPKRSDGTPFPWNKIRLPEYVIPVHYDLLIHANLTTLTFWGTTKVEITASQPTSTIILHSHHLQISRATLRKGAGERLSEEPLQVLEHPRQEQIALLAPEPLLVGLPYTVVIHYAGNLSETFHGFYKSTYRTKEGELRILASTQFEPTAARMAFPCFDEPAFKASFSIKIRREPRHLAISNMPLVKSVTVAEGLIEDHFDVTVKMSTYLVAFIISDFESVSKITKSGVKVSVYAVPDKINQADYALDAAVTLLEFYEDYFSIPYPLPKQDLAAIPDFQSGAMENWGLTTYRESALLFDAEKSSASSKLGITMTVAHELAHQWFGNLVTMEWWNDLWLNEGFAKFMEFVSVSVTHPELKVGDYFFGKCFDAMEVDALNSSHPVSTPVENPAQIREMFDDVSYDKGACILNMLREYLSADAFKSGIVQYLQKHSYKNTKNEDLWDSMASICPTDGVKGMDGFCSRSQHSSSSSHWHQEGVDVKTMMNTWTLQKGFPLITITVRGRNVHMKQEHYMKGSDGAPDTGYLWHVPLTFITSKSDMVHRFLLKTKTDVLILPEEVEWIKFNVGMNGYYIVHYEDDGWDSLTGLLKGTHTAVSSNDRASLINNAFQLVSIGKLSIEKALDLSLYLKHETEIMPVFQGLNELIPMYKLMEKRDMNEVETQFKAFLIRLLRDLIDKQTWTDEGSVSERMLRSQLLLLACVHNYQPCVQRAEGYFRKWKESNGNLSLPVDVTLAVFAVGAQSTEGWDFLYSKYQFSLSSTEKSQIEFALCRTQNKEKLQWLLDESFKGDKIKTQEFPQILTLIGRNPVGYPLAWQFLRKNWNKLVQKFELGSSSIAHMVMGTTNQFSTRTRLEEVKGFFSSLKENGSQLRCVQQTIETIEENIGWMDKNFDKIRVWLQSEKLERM

The experiment has as its target T1, Purified ERAP1 (37-941)-10His (ERAP1) (Homo sapiens, UniProt Q9NZ08).
T1 construct: Purified ERAP1 (37-941)-10His (ERAP1)
Description: ERAP1 mediated hydrolysis of an amide substrate (10-mer inhibition assay), biochemical system. Conditions: 10-mer substrate, 23° C., 1 h, excitation 279 nm / emission 355 nm; read-out: IC50 vs Decapeptide WRVYEKC(Dnp)ALK-acid (where Dnp is Dinitrophenyl maleimide) (10-mer).
On to `CCc1ccc(C(=O)O)cc1S(=O)(=O)Nc1cc(-n2cnnn2)ccc1N1CCC[C@@H](F)C1` [Example 266, I-4-ethyl-3-(N-(2-(3-fluoropiperidin-1-yl)-5-(tetrazol-1-yl)phenyl)sulfamoyl)benzoic acid], for which the pIC50 was greater than 6.30.

For `O=C(O)c1ccc(C2CC2)c(S(=O)(=O)Nc2cc(C(F)(F)F)ccc2N2CCCCC2)c1` [Example 267, 4-cyclopropyl-3-(N-(2-(piperidin-1-yl)-5-(trifluoromethyl)phenyl)sulfamoyl)benzoic acid], the pIC50 is greater than 6.30.

For `CCCCc1ccc(C(=O)O)cc1S(=O)(=O)Nc1cc(C(F)(F)F)ccc1N1CCCCC1` [Example 268, 4-butyl-3-(N-(2-(piperidin-1-yl)-5-(trifluoromethyl)phenyl)sulfamoyl)benzoic acid], the negative logarithm of the IC50 (pIC50) is greater than 6.30.

On to `COc1ccc(C(=O)O)cc1S(=O)(=O)Nc1cc(S(C)(=O)=O)ccc1N1CCC[C@@H](F)C1` [Example 269, I-3-(N-(2-(3-fluoropiperidin-1-yl)-5-(methylsulfonyl)phenyl)sulfamoyl)-4-methoxybenzoic acid], for which the pIC50 was greater than 6.30.

As to `CCc1ccc(C(=O)O)cc1S(=O)(=O)Nc1cc(C(F)(F)F)ccc1N1CC(C)(O)C1` [Example 270, 4-ethyl-3-(N-(2-(3-hydroxy-3-methylazetidin-1-yl)-5-(trifluoromethyl)phenyl)sulfamoyl)benzoic acid], the pIC50 was greater than 5.30.

For `O=C(O)c1ccc(-n2cccn2)c(S(=O)(=O)Nc2cc(C(F)(F)F)ccc2N2CCCCC2)c1` [Example 271, 3-(N-(2-(piperidin-1-yl)-5-(trifluoromethyl)phenyl)sulfamoyl)-4-(pyrazol-1-yl)benzoic acid], the pIC50 was greater than 5.30.

On to `O=C(O)c1ccc(C2CCO2)c(S(=O)(=O)Nc2cc(C(F)(F)F)ccc2N2CCCCC2)c1` (stereo not shown) [Example 272, 4-(oxetan-2-yl)-3-(N-(2-(piperidin-1-yl)-5-(trifluoromethyl)phenyl)sulfamoyl)benzoic acid], for which the negative-log IC50 (pIC50) was greater than 6.30.

In the case of `CCc1ccc(C(=O)O)cc1S(=O)(=O)Nc1cc(-c2cn(C)nn2)ccc1N1CCCCC1` [Example 273, 4-ethyl-3-(N-(5-(1-methyl-1,2,3-triazol-4-yl)-2-(piperidin-1-yl)phenyl)sulfamoyl)benzoic acid], the pIC50 was greater than 6.30.

Consider `CCc1ccc(C(=O)O)cc1S(=O)(=O)Nc1cc(-c2cnnn2C)ccc1N1CCCCC1` [Example 274, 4-ethyl-3-(N-(5-(1-methyl-1,2,3-triazol-5-yl)-2-(piperidin-1-yl)phenyl)sulfamoyl)benzoic acid], for which the pIC50 was greater than 6.30.

Take `CCc1ccc(C(=O)O)cc1S(=O)(=O)Nc1cc(-c2cncs2)ccc1N1CCCCC1` [Example 275, 4-ethyl-3-(N-(2-(piperidin-1-yl)-5-(thiazol-5-yl)phenyl)sulfamoyl)benzoic acid]: the pIC50 was greater than 6.30.

In the case of `CCc1ccc(C(=O)O)cc1S(=O)(=O)Nc1cc(-c2cc[nH]n2)ccc1N1CCCCC1` [Example 276, 4-ethyl-3-(N-(2-(piperidin-1-yl)-5-(pyrazol-3-yl)phenyl)sulfamoyl)benzoic acid], the pIC50 was greater than 6.30.

As for `CCc1ccc(C(=O)O)cc1S(=O)(=O)Nc1cc(-c2cnn(C)c2)ccc1N1CCCCC1` [Example 277, 4-ethyl-3-(N-(5-(1-methylpyrazol-4-yl)-2-(piperidin-1-yl)phenyl)sulfamoyl)benzoic acid], the pIC50 is greater than 6.30.

Take `CCc1ccc(C(=O)O)cc1S(=O)(=O)Nc1cc(-c2nncs2)ccc1N1CCCCC1` [Example 278, 4-ethyl-3-(N-(2-(piperidin-1-yl)-5-(1,3,4-thiadiazol-2-yl)phenyl)sulfamoyl)benzoic acid]: the pIC50 was greater than 6.30.

As to `CCc1ccc(C(=O)O)cc1S(=O)(=O)Nc1cc(-c2cnoc2C)ccc1N1CCCCC1` [Example 279, 4-ethyl-3-(N-(5-(5-methylisoxazol-4-yl)-2-(piperidin-1-yl)phenyl)sulfamoyl)benzoic acid], the pIC50 is greater than 6.30.

For `CCc1ccc(C(=O)O)cc1S(=O)(=O)Nc1cc(-c2ccn(C)n2)ccc1N1CCCCC1` [Example 280, 4-ethyl-3-(N-(5-(1-methylpyrazol-3-yl)-2-(piperidin-1-yl)phenyl)sulfamoyl)benzoic acid], the pIC50 is greater than 6.30.

With `CCc1ccc(C(=O)O)cc1S(=O)(=O)Nc1cc(-c2ccnn2C)ccc1N1CCCCC1` [Example 281], the pIC50 is greater than 6.30.

Regarding `CCc1ccc(C(=O)O)cc1S(=O)(=O)Nc1cc(-c2cnc(C)s2)ccc1N1CCCCC1` [Example 282, 4-ethyl-3-(N-(5-(2-methylthiazol-5-yl)-2-(piperidin-1-yl)phenyl)sulfamoyl)benzoic acid], the pIC50 is greater than 6.30.

As to `CCc1ccc(C(=O)O)cc1S(=O)(=O)Nc1cc(-n2cnnn2)ccc1N1CC(O)C1` [Example 283, 4-ethyl-3-(N-(2-(3-hydroxyazetidin-1-yl)-5-(tetrazol-1-yl)phenyl)sulfamoyl)benzoic acid], the negative logarithm of the IC50 (pIC50) was greater than 6.30.

Take `CCc1ccc(C(=O)O)cc1S(=O)(=O)Nc1cc(-c2ccns2)ccc1N1CCCCC1` [Example 286, 4-ethyl-3-(N-(5-(isothiazol-5-yl)-2-(piperidin-1-yl)phenyl)sulfamoyl)benzoic acid]: the pIC50 is greater than 6.30.

Turning to `CCc1ccc(C(=O)O)cc1S(=O)(=O)Nc1cc(-c2cncn2C)ccc1N1CCCCC1` [Example 287, 4-ethyl-3-(N-(5-(1-methylimidazol-5-yl)-2-(piperidin-1-yl)phenyl)sulfamoyl)benzoic acid], the negative logarithm of the IC50 (pIC50) was greater than 6.30.

Regarding `CCc1ccc(C(=O)O)cc1S(=O)(=O)Nc1cc(-c2ncnn2C)ccc1N1CCCCC1` [Example 288, 4-ethyl-3-(N-(5-(1-methyl-1,2,4-triazol-5-yl)-2-(piperidin-1-yl)phenyl)sulfamoyl)benzoic acid], the pIC50 is greater than 6.30.

Consider `CCc1ccc(C(=O)O)cc1S(=O)(=O)Nc1cc(-c2ncco2)ccc1N1CCCCC1` [Example 289, 4-ethyl-3-(N-(5-(oxazol-2-yl)-2-(piperidin-1-yl)phenyl)sulfamoyl)benzoic acid], for which the pIC50 is greater than 6.30.

`CCc1ccc(C(=O)O)cc1S(=O)(=O)Nc1cc(-c2cnccn2)ccc1N1CCCCC1` [Example 290, 4-ethyl-3-(N-(2-(piperidin-1-yl)-5-(pyrazin-2-yl)phenyl)sulfamoyl)benzoic acid]: the pIC50 was greater than 6.30.

Turning to `CCc1ccc(C(=O)O)cc1S(=O)(=O)Nc1cc(-c2c(C)noc2C)ccc1N1CCCCC1` [Example 291, 3-(N-(5-(3,5-dimethylisoxazol-4-yl)-2-(piperidin-1-yl)phenyl)sulfamoyl)-4-ethylbenzoic acid], the pIC50 is greater than 6.30.

Turning to `CCc1ccc(C(=O)O)cc1S(=O)(=O)Nc1cc(-c2nnc(C)o2)ccc1N1CCCCC1` [Example 292, 4-ethyl-3-(N-(5-(5-methyl-1,3,4-oxadiazol-2-yl)-2-(piperidin-1-yl)phenyl)sulfamoyl)benzoic acid], the pIC50 was greater than 6.30.

`CCc1ccc(C(=O)O)cc1S(=O)(=O)Nc1cc(-c2cccnn2)ccc1N1CCCCC1` [Example 293, 4-ethyl-3-(N-(2-(piperidin-1-yl)-5-(pyridazin-3-yl)phenyl)sulfamoyl)benzoic acid]: the pIC50 was greater than 6.30.

As to `CCc1ccc(C(=O)O)cc1S(=O)(=O)Nc1cc(C(F)(F)F)c(Br)cc1N1CCCCC1` [Example 294, 3-(N-(4-bromo-2-(piperidin-1-yl)-5-(trifluoromethyl)phenyl)sulfamoyl)-4-ethylbenzoic acid], the pIC50 was greater than 6.30.

`N#Cc1ccc(N2CCCCC2)c(NS(=O)(=O)c2cc(C(=O)O)ccc2C2CC2)c1` [Example 295, 3-(N-(5-cyano-2-(piperidin-1-yl)phenyl)sulfamoyl)-4-cyclopropylbenzoic acid]: the negative logarithm of the IC50 (pIC50) was greater than 6.30.

Take `CS(=O)(=O)c1ccc(N2CCCCC2)c(NS(=O)(=O)c2cc(C(=O)O)ccc2C2CC2)c1` [Example 296, 4-cyclopropyl-3-(N-(5-(methylsulfonyl)-2-(piperidin-1-yl)phenyl)sulfamoyl)benzoic acid]: the pIC50 was greater than 6.30.

For `CCc1ccc(C(=O)O)cc1S(=O)(=O)Nc1cc(-c2cnoc2)ccc1N1CCCCC1` [Example 297, 4-ethyl-3-(N-(5-(isoxazol-4-yl)-2-(piperidin-1-yl)phenyl)sulfamoyl)benzoic acid], the pIC50 is greater than 6.30.

In the case of `CCc1ccc(C(=O)O)cc1S(=O)(=O)Nc1cc(-c2c[nH]nn2)ccc1N1CCCCC1` [Example 298, 4-ethyl-3-(N-(2-(piperidin-1-yl)-5-(1,2,3-triazol-4-yl)phenyl)sulfamoyl)benzoic acid], the pIC50 was greater than 6.30.

On to `CCc1ccc(C(=O)O)cc1S(=O)(=O)Nc1cc(-c2nnco2)ccc1N1CCCCC1` [Example 299], for which the pIC50 is greater than 6.30.

In the case of `CCc1ccc(C(=O)O)cc1S(=O)(=O)Nc1cc(-c2ccno2)ccc1N1CCCCC1` [Example 300, 4-ethyl-3-(N-(5-(isoxazol-5-yl)-2-(piperidin-1-yl)phenyl)sulfamoyl)benzoic acid], the pIC50 was greater than 6.30.

With `CCc1ccc(C(=O)O)cc1S(=O)(=O)Nc1cc(-c2cn[nH]c2)ccc1N1CCCCC1` [Example 301, 4-ethyl-3-(N-(2-(piperidin-1-yl)-5-(pyrazol-4-yl)phenyl)sulfamoyl)benzoic acid], the negative logarithm of the IC50 (pIC50) was greater than 6.30.

Take `CCc1ccc(C(=O)O)cc1S(=O)(=O)Nc1cc(-c2ccnnc2)ccc1N1CCCCC1` [Example 302, 4-ethyl-3-(N-(2-(piperidin-1-yl)-5-(pyridazin-4-yl)phenyl)sulfamoyl)benzoic acid]: the pIC50 is greater than 6.30.

Consider `CCc1ccc(C(=O)O)cc1S(=O)(=O)Nc1cc(-c2cnoc2C)c(C)cc1N1CCCCC1` [Example 303, 4-ethyl-3-(N-(4-methyl-5-(5-methylisoxazol-4-yl)-2-(piperidin-1-yl)phenyl)sulfamoyl)benzoic acid], for which the pIC50 is greater than 6.30.

As for `CCc1ccc(C(=O)O)cc1S(=O)(=O)Nc1cc(-c2cnoc2C)c(F)cc1N1CCCCC1` [Example 304, 4-ethyl-3-(N-(4-fluoro-5-(5-methylisoxazol-4-yl)-2-(piperidin-1-yl)phenyl)sulfamoyl)benzoic acid], the pIC50 is greater than 6.30.

Source of the values: patent US12485169B2, “Compounds” (GREY WOLF THERAPEUTICS LIMITED, priority 2018, dated 2025).
